For assay [1], the target named is T1, recombinant hMAO-A (Homo sapiens, UniProt P21397).
T1 construct: purchased Sigma-Aldrich
T1 sequence (P21397 1-527): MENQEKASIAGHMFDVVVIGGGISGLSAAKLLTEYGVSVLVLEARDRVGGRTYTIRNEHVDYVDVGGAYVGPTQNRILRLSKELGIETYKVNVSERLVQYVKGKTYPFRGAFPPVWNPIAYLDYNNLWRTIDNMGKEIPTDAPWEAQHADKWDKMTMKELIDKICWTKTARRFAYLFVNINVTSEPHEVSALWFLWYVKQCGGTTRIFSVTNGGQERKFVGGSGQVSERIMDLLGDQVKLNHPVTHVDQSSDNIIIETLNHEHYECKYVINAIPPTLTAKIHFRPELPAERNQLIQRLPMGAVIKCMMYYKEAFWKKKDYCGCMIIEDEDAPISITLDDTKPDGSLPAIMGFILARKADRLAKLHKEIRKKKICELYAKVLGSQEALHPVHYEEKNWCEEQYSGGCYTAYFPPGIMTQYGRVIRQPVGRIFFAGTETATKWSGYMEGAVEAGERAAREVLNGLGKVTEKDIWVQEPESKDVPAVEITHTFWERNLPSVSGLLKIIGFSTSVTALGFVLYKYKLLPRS
In words: biochemical. The note with it: for inhibition at 1 µM: compound at 1 μM, read-out: inhibition of hMAO-A in primary screening; for IC50: mean ± SD, read-out: IC50 (nM) for monoamine oxidases hMAO-A. How it is done:
(§1) Briefly, the compounds under investigation and the reference inhibitor were preincubated with kynuramine at 37°C for 10 min in 96-well microplates. […] The enzymatic reactions were terminated by adding 400 μL of 2 N NaOH and 1,000 μL of water, followed by centrifugation at 16,000 g for 10 min. Subsequently, the concentrations of MAOs that produced 4-hydroxyquinoline were determined by measuring the fluorescence of the supernatant using a Varioskan Flash Multimode Reader ([…]) with excitation and emission wavelengths set at 310 nm and 400 nm, respectively. The IC50 values were calculated from dose-response curves and expressed as the mean ± standard deviation. These values were determined based on at least three independent experiments, each performed in triplicate.

The target in assay [2] is T2, recombinant hMAO-B (Homo sapiens, UniProt P27338).
T2 construct: purchased Sigma-Aldrich
T2 sequence (P27338 1-520): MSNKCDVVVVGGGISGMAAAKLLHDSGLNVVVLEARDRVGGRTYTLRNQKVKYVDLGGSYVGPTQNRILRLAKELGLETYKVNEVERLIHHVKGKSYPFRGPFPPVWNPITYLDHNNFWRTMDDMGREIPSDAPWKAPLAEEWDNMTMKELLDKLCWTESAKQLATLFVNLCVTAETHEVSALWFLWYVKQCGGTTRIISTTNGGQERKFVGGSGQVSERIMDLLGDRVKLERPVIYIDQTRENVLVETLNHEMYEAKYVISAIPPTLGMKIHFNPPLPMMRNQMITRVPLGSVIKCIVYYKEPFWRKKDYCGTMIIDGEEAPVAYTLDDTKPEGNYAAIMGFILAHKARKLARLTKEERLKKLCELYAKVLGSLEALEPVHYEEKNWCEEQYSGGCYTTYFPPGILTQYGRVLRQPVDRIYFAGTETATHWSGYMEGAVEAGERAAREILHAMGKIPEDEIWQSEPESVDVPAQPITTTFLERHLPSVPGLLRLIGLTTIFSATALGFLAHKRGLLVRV
In words: biochemical. As to conditions: for inhibition at 1 µM: compound at 1 μM, read-out: inhibition of hMAO-B in primary screening; for IC50: mean ± SD, read-out: IC50 (nM) for monoamine oxidases hMAO-B. The procedure: as §1

For assay [3], the target named is hAChE (Homo sapiens, UniProt P22303). Description: biochemical. The note with it: for inhibition at 1 µM: compound at 1 μM, read-out: inhibition of hAChE in primary screening; for IC50: Mean ± SD from 3-5 assays, read-out: IC50 (nM) for cholinesterase hAChE. The procedure: 50 μL of hAChE (0.02 unit/mL) or hBChE (0.02 unit/mL) were incubated with 10 μL of the compound in 96-well plates at 37°C for 6 min. Subsequently, 30 μL of a substrate solution containing acetylthiocholine iodide (ATCI) or butyrylthiocholine iodide (BTCI) at a concentration of 0.01 M was added, and the mixture was further incubated at 37°C for an additional duration of 12 min.

Assay [4] concerns the target hBuChE (Homo sapiens, UniProt P06276). Description: Ellman's assay, hBuChE inhibition. The note with it: for inhibition at 1 µM: compound at 1 μM, read-out: inhibition of hBuChE in primary screening; for IC50: Mean ± SD from 3-5 assays, read-out: IC50 (nM) for cholinesterase hBuChE. In kind it is biochemical. How it is done: The Ellman’s assay was utilized to assess the inhibitory potential of novel bis(7)-harmine derivatives against hAChE and hBuChE. 50 μL of hAChE (0.02 unit/mL) or hBChE (0.02 unit/mL) were incubated with 10 μL of the compound in 96-well plates at 37°C for 6 min. Subsequently, 30 μL of a substrate solution containing acetylthiocholine iodide (ATCI) or butyrylthiocholine iodide (BTCI) at a concentration of 0.01 M was added, and the mixture was further incubated at 37°C for an additional duration of 12 min. Finally, the activity was measured by adding 150 μL of a solution containing 5,5′−dithiobis (2-nitrobenzoic acid) (DTNB) at a concentration of 0.01 M, followed by measuring absorbance at a wavelength of 415 nm using an Evolution 300 PC UV-Vis Spectrophotometer.
(In Ellman's method for cholinesterases, released thiocholine reacts with DTNB.)

For assay [5], the target named is Aβ 1−42 (Homo sapiens, UniProt P05067). Description: Thioflavin T fluorescence assay, Aβ 1−42 self-aggregation. In kind it is biochemical. The note with it: for inhibition percent ratio of self-induced Aβ 1-42 aggregation: compound at 20 μM. How it is done:
The thioflavin T (Th-T) fluorescence assay was used to assess the inhibition of Aβ 1−42 self-aggregation. […] Subsequently, the reaction was terminated to a final volume of 200 μL using Th-T (10 μM) solution.

hAChE, sequence (P22303 32-614): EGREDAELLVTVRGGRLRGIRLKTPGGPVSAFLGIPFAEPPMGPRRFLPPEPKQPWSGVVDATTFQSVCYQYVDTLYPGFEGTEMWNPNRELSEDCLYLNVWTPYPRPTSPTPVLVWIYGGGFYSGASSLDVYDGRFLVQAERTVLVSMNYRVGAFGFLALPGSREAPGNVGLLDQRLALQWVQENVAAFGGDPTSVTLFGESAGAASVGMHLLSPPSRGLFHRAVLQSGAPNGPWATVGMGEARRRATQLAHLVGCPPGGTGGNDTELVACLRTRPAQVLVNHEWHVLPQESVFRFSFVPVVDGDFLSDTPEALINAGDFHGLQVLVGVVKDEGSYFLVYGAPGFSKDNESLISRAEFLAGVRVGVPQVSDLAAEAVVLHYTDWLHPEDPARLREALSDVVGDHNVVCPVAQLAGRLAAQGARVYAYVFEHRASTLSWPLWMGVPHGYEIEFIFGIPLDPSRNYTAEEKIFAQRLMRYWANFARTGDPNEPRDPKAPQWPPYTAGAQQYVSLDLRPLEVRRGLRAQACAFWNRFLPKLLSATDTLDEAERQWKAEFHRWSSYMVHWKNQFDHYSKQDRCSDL
hBuChE, sequence (P06276 29-602): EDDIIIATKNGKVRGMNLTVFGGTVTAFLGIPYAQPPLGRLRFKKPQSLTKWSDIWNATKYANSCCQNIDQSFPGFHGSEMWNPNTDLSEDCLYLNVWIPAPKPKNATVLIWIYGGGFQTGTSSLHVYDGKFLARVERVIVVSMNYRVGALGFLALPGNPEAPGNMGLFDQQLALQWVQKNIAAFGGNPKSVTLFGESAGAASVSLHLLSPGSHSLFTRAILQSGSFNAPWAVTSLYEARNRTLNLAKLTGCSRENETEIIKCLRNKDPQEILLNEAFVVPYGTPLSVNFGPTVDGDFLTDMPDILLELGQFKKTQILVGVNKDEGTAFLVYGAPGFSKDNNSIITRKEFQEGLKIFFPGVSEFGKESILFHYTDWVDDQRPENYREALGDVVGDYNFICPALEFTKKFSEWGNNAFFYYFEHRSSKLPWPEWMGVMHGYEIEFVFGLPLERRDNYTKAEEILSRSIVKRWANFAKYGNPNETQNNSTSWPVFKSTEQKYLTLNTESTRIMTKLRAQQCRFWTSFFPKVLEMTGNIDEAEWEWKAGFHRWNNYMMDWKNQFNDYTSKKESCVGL
Aβ 1−42, sequence (P05067 672-713 limits assumed): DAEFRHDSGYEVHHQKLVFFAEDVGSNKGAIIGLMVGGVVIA

By inhibition is commonly meant the drop in the measured response relative to a control, in per cent. As for `Cc1nccc2c3ccc(OCCCCOc4ccc5c6ccnc(C)c6n(C)c5c4)cc3n(C)c12` [Compound 4a, 1,4-bis ((1,9-dimethyl-9H-pyrido [3,4-b]indol-7-yl)oxy)butane], the inhibition at 1 µM in assay [1] was found to be 41.5%; in assay [2] it was 13.8%; in assay [3], 36.3%; in assay [4], 30.5%. Also, the “inhibition percent ratio of self-induced Aβ 1-42 aggregation” value (“inhibition percent ratio” below) in assay [5] was found to be 39.3%.
One may read the IC50 as the point on the concentration scale where inhibition reaches its midpoint. For the molecule `CCn1c2cc(OCCCCOc3ccc4c5ccnc(C)c5n(CC)c4c3)ccc2c2ccnc(C)c21` [Compound 4b, 1,4-bis ((9-ethyl-1-methyl-9H-pyrido [3,4-b]indol-7-yl)oxy)butane], in assay [1], the “S.I. Selectivity index IC50(hMAO-B)/IC50(hMAO-A)” value is recorded as over 1.4. The IC50 in assay [1] came to 686 ± 43.5 nM; in assay [3], 101 ± 6.8 nM. Besides, the inhibition at 1 µM in assay [2] was 28.6%; in assay [4] it was 36.7%. For the same molecule, the “S.I. Selectivity index IC50(hBuChE)/IC50(hAChE)” value in assay [3] is over 9.9. Further, the “inhibition percent ratio” value in assay [5] is recorded as 27.6%.
Turning to `CCCn1c2cc(OCCCCOc3ccc4c5ccnc(C)c5n(CCC)c4c3)ccc2c2ccnc(C)c21` [Compound 4c, 1,4-bis ((1-methyl-9-propyl-9H-pyrido [3,4-b]indol-7-yl)oxy)butane], the inhibition at 1 µM stood at 48.6% in assay [1] and 17.8% in assay [2]. The “S.I. Selectivity index IC50(hBuChE)/IC50(hAChE)” value in assay [3] is reported as 10.2. The IC50 stood at 68 ± 5.1 nM in assay [3] and 694 ± 43.2 nM in assay [4]. In addition, in assay [5], the “inhibition percent ratio” value came to 33.2%.
With `C=CCn1c2cc(OCCCCOc3ccc4c5ccnc(C)c5n(CC=C)c4c3)ccc2c2ccnc(C)c21` [Compound 4d, 1,4-bis ((9-allyl-1-methyl-9H-pyrido [3,4-b]indol-7-yl)oxy)butane], the inhibition at 1 µM in assay [1] is 49.3%; in assay [2] it was 30.3%; in assay [3], 45.6%; in assay [4], 32.9%. For the same molecule, in assay [5], the “inhibition percent ratio” value was found to be 35.5%.
As to `Cc1nccc2c3ccc(OCCCCCOc4ccc5c6ccnc(C)c6n(C)c5c4)cc3n(C)c12` [Compound 5a, 1,5-bis ((1,9-dimethyl-9H-pyrido [3,4-b]indol-7-yl)oxy)pentane], in assay [1], the “S.I. Selectivity index IC50(hMAO-B)/IC50(hMAO-A)” value is reported as over 4.1 and the IC50 came to 241 ± 13.8 nM. The inhibition at 1 µM in assay [2] came to 25.6%. Further, in assay [3], the “S.I. Selectivity index IC50(hBuChE)/IC50(hAChE)” value is 0.3 and the half-inhibitory concentration (IC50) was 827 ± 41.5 nM. Also, the concentration for half-maximal inhibition (IC50) in assay [4] turned out to be 256 ± 15.7 nM. Besides, the “inhibition percent ratio” value in assay [5] came out at 40.6%.
Regarding `CCn1c2cc(OCCCCCOc3ccc4c5ccnc(C)c5n(CC)c4c3)ccc2c2ccnc(C)c21` [Compound 5b, 1,5-bis ((9-ethyl-1-methyl-9H-pyrido [3,4-b]indol-7-yl)oxy)pentane], the inhibition at 1 µM in assay [1] was determined as 42.4%; in assay [2] it was 33.7%. Also, the “S.I. Selectivity index IC50(hBuChE)/IC50(hAChE)” value in assay [3] stood at 8.1. Also, the figures for the IC50 in assay [3] and in assay [4] were 115 ± 7.36 nM and 928 ± 62.1 nM, respectively. In addition, the “inhibition percent ratio” value in assay [5] amounted to 31.8%.
For `CCCn1c2cc(OCCCCCOc3ccc4c5ccnc(C)c5n(CCC)c4c3)ccc2c2ccnc(C)c21` [Compound 5c, 1,5-bis ((1-methyl-9-propyl-9H-pyrido [3,4-b]indol-7-yl)oxy)pentane], the inhibition at 1 µM in assay [1] came to 39.5%; in assay [2], 27.5%; in assay [4], 45.6%. Further, in assay [3], the “S.I. Selectivity index IC50(hBuChE)/IC50(hAChE)” value was over 13.7. Also, the IC50 in assay [3] turned out to be 73.8 ± 4.28 nM. The “inhibition percent ratio” value in assay [5] is 29.4%.
On to `C=CCn1c2cc(OCCCCCOc3ccc4c5ccnc(C)c5n(CC=C)c4c3)ccc2c2ccnc(C)c21` [Compound 5d, 1,5-bis ((9-allyl-1-methyl-9H-pyrido [3,4-b]indol-7-yl)oxy)pentane], for which the inhibition at 1 µM amounted to 41.1% in assay [1], 29.8% in assay [2] and 41.2% in assay [4]. Moreover, the “S.I. Selectivity index IC50(hBuChE)/IC50(hAChE)” value in assay [3] is given as over 3.4. The IC50 in assay [3] is 288 ± 21.3 nM. In addition, the “inhibition percent ratio” value in assay [5] is reported as 43.6%.
As to `Cc1nccc2c3ccc(OCCCCCCOc4ccc5c6ccnc(C)c6n(C)c5c4)cc3n(C)c12` [Compound 6a, 1,6-bis ((1,9-dimethyl-9H-pyrido [3,4-b]indol-7-yl)oxy)hexane], in assay [1], the “S.I. Selectivity index IC50(hMAO-B)/IC50(hMAO-A)” value worked out at 7.1. Also, the 50% inhibitory concentration (IC50) in assay [1] is 123 ± 7.2 nM; in assay [2] it was 863 ± 61.3 nM; in assay [3], 493 ± 30.3 nM; in assay [4], 331 ± 21.5 nM; in assay [5] (Aβ 1-42 20 μM, 37°C, 24 h), 19.8 ± 1.1 µM. Further, the “S.I. Selectivity index IC50(hBuChE)/IC50(hAChE)” value in assay [3] is 0.7.
Take `CCn1c2cc(OCCCCCCOc3ccc4c5ccnc(C)c5n(CC)c4c3)ccc2c2ccnc(C)c21` [Compound 6b, 1,6-bis ((9-ethyl-1-methyl-9H-pyrido [3,4-b]indol-7-yl)oxy)hexane]: in assay [1], the “S.I. Selectivity index IC50(hMAO-B)/IC50(hMAO-A)” value is over 1.1 and the half-inhibitory concentration (IC50) came to 893 ± 59.3 nM. In addition, the inhibition at 1 µM in assay [2] turned out to be 41.2%. Further, in assay [3], the “S.I. Selectivity index IC50(hBuChE)/IC50(hAChE)” value was determined as 0.1 and the IC50 came out at 652 ± 35.8 nM. For the same molecule, the IC50 in assay [4] amounted to 86.8 ± 5.3 nM. In addition, the “inhibition percent ratio” value in assay [5] was found to be 40.2%.
For the molecule `CCCn1c2cc(OCCCCCCOc3ccc4c5ccnc(C)c5n(CCC)c4c3)ccc2c2ccnc(C)c21` [Compound 6c, 1,6-bis ((1-methyl-9-propyl-9H-pyrido [3,4-b]indol-7-yl)oxy)hexane], the “S.I. Selectivity index IC50(hMAO-B)/IC50(hMAO-A)” value in assay [1] is reported as 25.2. Further, the half-inhibitory concentration (IC50) in assay [1] was 21 ± 1.18 nM; in assay [2], 529 ± 38.7 nM; in assay [3], 82.1 ± 6.9 nM; in assay [4], 994 ± 73.4 nM. Moreover, the “S.I. Selectivity index IC50(hBuChE)/IC50(hAChE)” value in assay [3] was found to be 12.1. Besides, in assay [5], the “inhibition percent ratio” value stood at 35.8%.
Take `CCn1c2cc(OCCCCCCCOc3ccc4c5ccnc(C)c5n(CC)c4c3)ccc2c2ccnc(C)c21` [Compound 7b, 1,7-bis ((9-ethyl-1-methyl-9H-pyrido [3,4-b]indol-7-yl)oxy)heptane]: the “S.I. Selectivity index IC50(hMAO-B)/IC50(hMAO-A)” value in assay [1] worked out at 0.5. Also, the IC50 in assay [1] was 150 ± 12.4 nM; in assay [2] it was 79.8 ± 4.9 nM; in assay [3] it was 386 ± 26.8 nM. Also, the “S.I. Selectivity index IC50(hBuChE)/IC50(hAChE)” value in assay [3] was over 2.6. Further, the inhibition at 1 µM in assay [4] worked out at 36.5%. The “inhibition percent ratio” value in assay [5] was determined as 29.6%.

Values taken from publication PMC11813896, “Bis(7)-harmine derivatives as potential multi-target anti-Alzheimer agents” (Frontiers in Chemistry, 2025).
